The source of these data is US8106055B2, “Substituted amide compounds” (Gruenenthal GmbH, priority 2007, dated 2012).

Where two headings read alike, the source gives them in different places.

The target in experiment [1] is T1, human bradykinin 1 receptor (B1R) (Homo sapiens, UniProt P46663).
T1 construct: expressed in transfected cells; host or cells: CHO K1 cells
T1 sequence (P46663 1-353): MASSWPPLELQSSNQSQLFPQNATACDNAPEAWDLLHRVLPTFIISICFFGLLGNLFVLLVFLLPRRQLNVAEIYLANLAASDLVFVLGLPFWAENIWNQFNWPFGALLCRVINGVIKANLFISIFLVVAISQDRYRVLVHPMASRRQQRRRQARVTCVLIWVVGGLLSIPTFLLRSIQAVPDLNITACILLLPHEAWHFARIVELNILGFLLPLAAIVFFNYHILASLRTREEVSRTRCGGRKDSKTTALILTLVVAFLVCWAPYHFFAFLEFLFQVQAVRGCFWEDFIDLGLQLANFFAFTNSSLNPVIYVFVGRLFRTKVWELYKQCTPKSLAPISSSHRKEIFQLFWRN
The experiment in a line: Functional investigation on the human bradykinin 1 receptor (B1R), Ca2+ FLIPR assay in CHO K1 hB1R cells. The experiment is classed as cell-based. As to conditions: test substance 10 μM; for inhibition at 10 µM: CHO-K1, B1R antagonism human, read-out: B1R Ant. h [10 μM] % Inhibition. The method, boiled down:
(§1)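 Cells were dye-loaded with Fluo-4 plus probenecid, then test substances added and Ca2+ influx compared with agonist control for % activation. After 10-20 min, EC80 agonist (Lys-Des-Arg9-bradykinin human; Des-Arg9-bradykinin rat) was applied; suppression gave % inhibition and IC50 values.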

Experiment [2] deals with T2, bradykinin 1 receptor (B1R) of the rat (Rattus norvegicus, UniProt P97583).
T2 construct: expressed in transfected cells; host or cells: CHO K1 cells
T2 sequence (P97583 1-337): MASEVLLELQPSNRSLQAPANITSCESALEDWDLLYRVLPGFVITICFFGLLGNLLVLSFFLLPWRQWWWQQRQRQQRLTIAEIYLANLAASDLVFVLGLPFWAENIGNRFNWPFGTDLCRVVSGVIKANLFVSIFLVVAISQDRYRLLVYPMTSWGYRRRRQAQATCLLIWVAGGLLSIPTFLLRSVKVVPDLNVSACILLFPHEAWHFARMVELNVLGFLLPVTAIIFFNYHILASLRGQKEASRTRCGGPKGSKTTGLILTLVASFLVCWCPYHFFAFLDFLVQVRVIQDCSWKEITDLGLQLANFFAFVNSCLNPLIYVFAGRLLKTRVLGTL
The experiment in a line: Functional investigation on the rat bradykinin 1 receptor (B1R), Ca2+ FLIPR assay in CHO K1 rB1R cells. Format: cell-based. The following applies: test substance 10 μM; for inhibition at 10 µM: CHO-K1, B1R antagonism rat, read-out: B1R Ant. r [10 μM] % Inhibition. A digest of the protocol:
as §1

The next experiment addresses T3, human μ opiate receptor (Homo sapiens, UniProt P35372).
T3 construct: purchased PerkinElmer Life Sciences, Zaventem, Belgium RB-HOM; host or cells: CHO-K1 cells (membrane preparation)
The experiment in a line: Affinity for the human μ opiate receptor ([3H]-naloxone displacement, CHO-K1 receptor membrane preparation, SPA). Format: binding. The following applies: 1.5 h, Table 3, to be read in the same way as Table 1; test concentration 1 μM; read-out: μ. On the procedure:
Binding data of the compounds on the μ opioid receptor and data on the inhibition of reuptake of serotonin (5-HT) are given in Table 1. The data for the μ receptor were measured at a test concentration of 1 μM, and those for the serotonin reuptake at 10 μM. The values are stated in % inhibition.
Investigation of the Activity of the Compounds of the Invention Method for Determining the Affinity for the Human μ Opiate Receptor
The receptor affinity for the human p opiate receptor is determined in a homogeneous set-up in microtitre plates. For this, dilution series of the substances to be tested are incubated with a receptor membrane preparation (15-40 μg of protein/250 μl of incubation batch) of CHO-K1 cells which express the human p opiate receptor (RB-HOM receptor membrane preparation from PerkinElmer Life Sciences, Zaventem, Belgium) in the presence of 1 nmol/l of the radioactive ligand [^3H]-naloxone (NET719, PerkinElmer Life Sciences, Zaventem, Belgium) and 1 mg of WGA-SPA-Beads (wheat germ agglutinin SPA beads from Amersham/Pharmacia, Freiburg, Germany) in a total volume of 250 μl for 90 minutes at room temperature. 50 mmol/l of Tris-HCl supplemented with 0.06% of bovine serum albumin is used as the incubation buffer. 100 μmol/l of naloxone are additionally added for determination of the non-specific binding. After the end of the ninety-minute incubation time, the microtitre plates are centrifuged for 20 minutes at 1,000 g and the radioactivity is measured in a β-counter (Microbeta-Trilux, PerkinElmer Wallac, Freiburg, Germany). The percentage displacement of the radioactive ligand from its binding to the human p opiate receptor is determined at a concentration of the test substances of 1 μmol/l and stated as the percentage inhibition of the specific binding. Starting from the percentage displacement by various concentrations of the test substances, IC50 inhibitory concentrations which cause a 50 percent displacement of the radioactive ligand are calculated. By conversion by means of the Cheng-Prusoff relationship, Ki values for the test substances are obtained.

The mark [3] stands for this setting: % inhibition compared with the maximum achievable inhibition.

T3 sequence (P35372 whole entry): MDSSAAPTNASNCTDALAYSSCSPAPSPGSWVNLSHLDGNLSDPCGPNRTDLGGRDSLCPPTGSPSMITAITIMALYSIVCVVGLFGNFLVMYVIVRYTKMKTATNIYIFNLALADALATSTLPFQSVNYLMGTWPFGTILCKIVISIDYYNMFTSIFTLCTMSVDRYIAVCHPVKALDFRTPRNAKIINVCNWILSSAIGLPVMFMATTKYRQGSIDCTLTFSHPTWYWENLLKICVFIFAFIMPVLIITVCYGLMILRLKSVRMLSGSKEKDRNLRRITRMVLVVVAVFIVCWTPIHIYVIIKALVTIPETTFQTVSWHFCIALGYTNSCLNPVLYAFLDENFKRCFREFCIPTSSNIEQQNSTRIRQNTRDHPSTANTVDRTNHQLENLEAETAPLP

Consider `COc1cc(C)c(S(=O)(=O)N2CCCC2COCC(=O)NC2CCC(C(CCc3ccccc3)N3CCCCC3)CC2)c(C)c1` (stereo not drawn) [Example 677, 2-((1-(4-methoxy-2,6-dimethylphenylsulfonyl)pyrrolidin-2-yl)methoxy)-N-(4-(3-phenyl-1-(piperidin-1-yl)propyl)cyclohexyl)acetamide], for which the inhibition at 10 µM came to 104% in experiment [1] (Ca2+ FLIPR, CHO K1 hB1R cells) and 107% in experiment [2] (Ca2+ FLIPR, CHO K1 rB1R cells). On human μ opiate receptor, the inhibition at 1 µM was 60%.
Take `COc1cc(C)c(S(=O)(=O)N(C)CCOCC(=O)N2CCC(C(CCc3ccccc3)N3CCN(C)CC3)CC2)c(C)c1` (stereo not drawn) [Example 801, 4-methoxy-N,2,6-trimethyl-N-(2-(2-(4-(1-(4-methylpiperazin-1-yl)-3-phenylpropyl)piperidin-1-yl)-2-oxoethoxy)ethyl)benzenesulfonamide]: the results for the inhibition at 10 µM in experiment [1] (setting [3]) and in experiment [2] (setting [3]) were 106% and 97%, respectively. In addition, the inhibition at 1 µM at human μ opiate receptor stood at 21%.
Take `O=C(COCC1CCCN(S(=O)(=O)c2c(Cl)cc(Cl)cc2Cl)C1)NC1CCC(C(c2ccccc2)N2CCCC2)CC1` (stereo not drawn) [Example 633, N-(4-(phenyl(pyrrolidin-1-yl)methyl)cyclohexyl)-2-((1-(2,4,6-trichlorophenylsulfonyl)piperidin-3-yl)methoxy)acetamide]: the inhibition at 10 µM in experiment [1] (Ca2+ FLIPR, CHO K1 hB1R cells) was determined as 55%; in experiment [2] (Ca2+ FLIPR, CHO K1 rB1R cells) it was 63%. Further, the inhibition at 1 µM at human μ opiate receptor worked out at 91%.
Consider `COc1cc(C)c(S(=O)(=O)N2CCCCC2COCC(=O)N2CCC(C(Cc3ccccc3)N3CCN(C)CC3)CC2)c(C)c1` (stereo not drawn) [Example 802, 2-((1-(4-methoxy-2,6-dimethylphenylsulfonyl)piperidin-2-yl)methoxy)-1-(4-(1-(4-methylpiperazin-1-yl)-2-phenylethyl)piperidin-1-yl)ethanone], for which the results for the inhibition at 10 µM in experiment [1] (setting [3]) and in experiment [2] (setting [3]) were 106% and 97%, respectively. At human μ opiate receptor, the inhibition at 1 µM came to 27%.
In the case of `COc1cc(C)c(S(=O)(=O)N2CCCCC2COCC(=O)NC2CCC(C(c3ccccc3)N3CCOCC3)CC2)c(C)c1` (stereo not drawn) [Example 699, 2-((1-(4-methoxy-2,6-dimethylphenylsulfonyl)piperidin-2-yl)methoxy)-N-(4-(morpholino(phenyl)methyl)cyclohexyl)acetamide], the inhibition at 10 µM in experiment [1] (Ca2+ FLIPR, CHO K1 hB1R cells) is 90%; in experiment [2] (Ca2+ FLIPR, CHO K1 rB1R cells) it was 104%. Besides, at human μ opiate receptor, the inhibition at 1 µM turned out to be 15%.
In the case of `O=C(COC1CCN(S(=O)(=O)c2c(Cl)cc(Cl)cc2Cl)C1)NCC1CCC(C(c2ccccc2)N2CCCC2)CC1` (stereo not drawn) [Example 644, N-((4-(phenyl(pyrrolidin-1-yl)methyl)cyclohexyl)methyl)-2-(1-(2,4,6-trichlorophenylsulfonyl)pyrrolidin-3-yloxy)acetamide], the inhibition at 10 µM in experiment [1] (Ca2+ FLIPR, CHO K1 hB1R cells) was 73%; in experiment [2] (Ca2+ FLIPR, CHO K1 rB1R cells) it was 52%. The inhibition at 1 µM at human μ opiate receptor was found to be 59%.
`CN(CCOCC(=O)NC1CCC(C(c2ccccc2)N2CCCC2)CC1)S(=O)(=O)c1c(Cl)cc(Cl)cc1Cl` (stereo not drawn) [Example 625, N-(4-(phenyl(pyrrolidin-1-yl)methyl)cyclohexyl)-2-(2-(2,4,6-trichloro-N-methylphenylsulfonamido)ethoxy)acetamide]: the “B1R Ant. h [10 μM] % Inhibition” value in experiment [1] (B1R antagonism human, Ca2+ FLIPR, CHO K1 hB1R cells) is listed as 100%. In addition, the “B1R Ant. r [10 μM] % Inhibition” value in experiment [2] (B1R antagonism rat, Ca2+ FLIPR, CHO K1 rB1R cells) stood at 57%. Moreover, the inhibition at 1 µM on human μ opiate receptor amounted to 72%.
As for `O=C(COC1CCCN(S(=O)(=O)c2c(Cl)cc(Cl)cc2Cl)C1)NCC1CCC(C(c2ccccc2)N2CCOCC2)CC1` (stereo not drawn) [Example 707, N-((4-(morpholino(phenyl)methyl)cyclohexyl)methyl)-2-(1-(2,4,6-trichlorophenylsulfonyl)piperidin-3-yloxy)acetamide], the inhibition at 10 µM in experiment [1] (Ca2+ FLIPR, CHO K1 hB1R cells) turned out to be 2%; in experiment [2] (Ca2+ FLIPR, CHO K1 rB1R cells), 25%. In addition, on human μ opiate receptor, the inhibition at 1 µM was found to be 28%.
The matching figures for `COc1cc(C)c(S(=O)(=O)N2CCCC(OCC(=O)NC3CCC(C(c4ccccc4)N4CCCC4)CC3)C2)c(C)c1` (stereo not drawn) [Example 647, 2-(1-(4-methoxy-2,6-dimethylphenylsulfonyl)piperidin-3-yloxy)-N-(4-(phenyl(pyrrolidin-1-yl)methyl)cyclohexyl)acetamide]: 92%, 94% and 49%.
On to `CN1CCN(C(c2ccccc2)C2CCC(NC(=O)COCCN(C)S(=O)(=O)c3c(Cl)cccc3Cl)CC2)CC1` (stereo not drawn) [Example 684, 2-(2-(2,6-dichloro-N-methylphenylsulfonamido)ethoxy)-N-(4-((4-methylpiperazin-1-yl)(phenyl)methyl)cyclohexyl)acetamide], for which the inhibition at 10 µM turned out to be 95% in experiment [1] (Ca2+ FLIPR, CHO K1 hB1R cells) and 61% in experiment [2] (Ca2+ FLIPR, CHO K1 rB1R cells). In addition, the inhibition at 1 µM on human μ opiate receptor stood at 29%.
The matching figures for `COc1cc(C)c(S(=O)(=O)N2CCC(OCC(=O)NC3CCC(C(CCc4ccccc4)N4CCOCC4)CC3)C2)c(C)c1` (stereo not drawn) [Example 668, 2-(1-(4-methoxy-2,6-dimethylphenylsulfonyl)pyrrolidin-3-yloxy)-N-(4-(1-morpholino-3-phenylpropyl)cyclohexyl)acetamide]: 88%, 64% and 10%.
As for `CN1CCN(C(c2ccccc2)C2CCN(C(=O)COCC3CCc4ccccc4N3S(=O)(=O)c3ccc(Cl)c(Cl)c3)CC2)CC1` (stereo not drawn) [Example 810, 2-((1-(3,4-dichlorophenylsulfonyl)-1,2,3,4-tetrahydroquinolin-2-yl)methoxy)-1-(4-((4-methylpiperazin-1-yl)(phenyl)methyl)piperidin-1-yl)ethanone], the inhibition at 10 µM in experiment [1] (setting [3]) worked out at 102%; in experiment [2] (setting [3]), 97%. Further, at human μ opiate receptor, the inhibition at 1 µM is 19%.
In the case of `COc1cc(C)c(S(=O)(=O)N2CCCC(OCC(=O)NC3CCC(C(CCc4ccccc4)N4CCCCC4)CC3)C2)c(C)c1` (stereo not drawn) [Example 675, 2-(1-(4-methoxy-2,6-dimethylphenylsulfonyl)piperidin-3-yloxy)-N-(4-(3-phenyl-1-(piperidin-1-yl)propyl)cyclohexyl)acetamide], the inhibition at 10 µM in experiment [1] (Ca2+ FLIPR, CHO K1 hB1R cells) is 97%; in experiment [2] (Ca2+ FLIPR, CHO K1 rB1R cells) it was 89%. The inhibition at 1 µM on human μ opiate receptor came out at 37%.
For the compound `O=C(COC1CCCN(S(=O)(=O)c2c(Cl)cc(Cl)cc2Cl)C1)NCC1CCC(C(CCc2ccccc2)N2CCCC2)CC1` (stereo not drawn) [Example 729, N-((4-(3-phenyl-1-(pyrrolidin-1-yl)propyl)cyclohexyl)methyl)-2-(1-(2,4,6-trichlorophenylsulfonyl)piperidin-3-yloxy)acetamide], the inhibition at 10 µM in experiment [1] (Ca2+ FLIPR, CHO K1 hB1R cells) was found to be 92%; in experiment [2] (Ca2+ FLIPR, CHO K1 rB1R cells), 22%. Besides, the inhibition at 1 µM at human μ opiate receptor came to 79%.
